We go through three compounds from paper PMC4403932 (Journal of Medicinal Chemistry, 2015).

Type in all cases: binding
In test [1] the target is T1, BRD9 (Homo sapiens, UniProt Q9H8M2).
T1 construct: made in house
T1 sequence (Q9H8M2 136-240 limits assumed): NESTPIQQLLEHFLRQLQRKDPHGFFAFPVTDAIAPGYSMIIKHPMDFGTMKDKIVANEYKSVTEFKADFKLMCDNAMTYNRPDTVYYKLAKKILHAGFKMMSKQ
The experiment in a line: Isothermal titration calorimetry, BRD9. To be noted: for Kd / ΔG / N (stoichiometry) / ΔHobs / TΔS: ITC, 15 °C; for Kd: 50 mM HEPES pH 7.5, 150 mM NaCl, triplicate, read-out: KD; for Kd / N (stoichiometry) / ΔHobs: reverse titration; for LE (ligand efficiency): LE = ΔG/N, N number of non-hydrogen atoms. Here is the method: (§1) Experiments were carried out on an ITC200 titration microcalorimeter from MicroCal, LLC (GE Healthcare) equipped with a Washing module, with a cell volume of 0.2003 mL, and a 40 μL microsyringe. Experiments were carried out at 15 °C while stirring at 1000 rpm, in ITC buffer (50 mM HEPES, pH 7.5 (at 25 °C), 150 mM NaCl). The microsyringe was loaded with a solution of the protein sample (300−740 μM protein for BRD9 and BRD4(1), respectively, in ITC buffer) and was carefully inserted into the calorimetric cell which was filled with an amount of the ligand (0.2 mL, 20–25 μM in ITC buffer). The system was first allowed to equilibrate until the cell temperature reached 15 °C, and an additional delay of 60 s was applied. All titrations were conducted using an initial control injection of 0.3 μL followed by 38 identical injections of 1 μL with a duration of 2 s (per injection) and a spacing of 120 s between injections. The titration experiments were designed in such a fashion as to ensure complete saturation of the proteins before the final injection. The heat of dilution for the proteins was independent of their concentration and corresponded to the heat observed from the last injection, following saturation of ligand binding, thus facilitating the estimation of the baseline of each titration from the last injection. The collected data were corrected for protein heats of dilution (measured on separate experiments by titrating the proteins into ITC buffer) and deconvoluted using the MicroCal Origin software supplied with the instrument to yield enthalpies of binding (ΔH) and binding constants (KB) in the same fashion as that previously described in detail by Wiseman and co-workers.[66] Thermodynamic parameters were calculated using the basic equation of thermodynamics (ΔG = ΔH – TΔS = −RT ln KB, where ΔG, ΔH, and ΔS are the changes in free energy, enthalpy, and entropy of binding, respectively). In all cases a single binding site model was employed, supplied with the MicroCal Origin software package.
(In general: Isothermal titration calorimetry measures the heat released or taken up as one component is titrated into another.)

The target of test [2] is T1, BRD9. Briefly: Protein stability (thermal) shift assay, BRD9. Here is the method: (§2) Thermal melting experiments were carried out using an Mx3005p real time PCR machine (Stratagene). Proteins were buffered in 10 mM HEPES, pH 7.5, 500 mM NaCl and assayed in a 96-well plate at a final concentration of 2 μM in 20 μL volume. Compounds were added at a final concentration of 10 or 100 μM. SYPRO Orange (Molecular Probes) was added as a fluorescence probe at a dilution of 1 in 1000. Excitation and emission filters for the SYPRO-Orange dye were set to 465 and 590 nm, respectively. The temperature was raised with a step of 3 °C per minute from 25 to 96 °C, and fluorescence readings were taken at each interval. The temperature dependence of the fluorescence during the protein denaturation process was approximated by the equation [drawing 1] where ΔuG is the difference in unfolding free energy between the folded and unfolded state, R is the gas constant, and yF and yU are the fluorescence intensity of the probe in the presence of completely folded and unfolded protein, respectively.[65] The baselines of the denatured and native states were approximated by a linear fit. The observed temperature shifts, ΔTm^obs, were recorded as the difference between the transition midpoints of sample and reference wells containing protein without ligand in the same plate and determined by nonlinear least-squares fit. Temperature shifts (ΔTm^obs) for three independent measurements per proteins/compound are summarized in Supporting Information Table S1.

The target in test [3] is T2, BRD4(1) (Homo sapiens, UniProt O60885).
T2 construct: made in house
Briefly: Protein stability (thermal) shift assay, BRD4(1). Here is the method:
as §2

Test [4] concerns the target T3, BRD2(1) (Homo sapiens, UniProt P25440).
T3 construct: Fragments were tested in a thermal shift assay against bromodomains of the BET subfamily; made in house
The experiment in a line: Protein stability (thermal) shift assay, BRD2(1). To be noted: compound 10 μM, protein 2 μM; average of triplicate. Here is the method: as §2

The target of test [5] is T4, PCAF (Homo sapiens, UniProt Q92831).
T4 construct: representative BRDs from other structural subfamilies (family I, PCAF); made in house
T4 sequence (Q92831 723-827 limits assumed): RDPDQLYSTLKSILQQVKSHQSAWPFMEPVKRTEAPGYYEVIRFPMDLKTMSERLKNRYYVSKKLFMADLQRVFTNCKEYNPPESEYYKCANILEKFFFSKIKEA
Briefly: Protein stability (thermal) shift assay, PCAF. The note with it: compound 10 μM, protein 2 μM; average of triplicate. Here is the method: as §2

Test [6] has as its target T5, CREBBP (Homo sapiens, UniProt Q92793).
T5 construct: small thermal shits (1.0–1.3 °C) for the bromodomain of CREBBP; made in house
The experiment in a line: Protein stability (thermal) shift assay, CREBBP. As to the method: as §2

For test [7], the target named is T6, BRDT(2) (Homo sapiens, UniProt Q58F21).
T6 construct: made in house
The experiment in a line: Protein stability (thermal) shift assay, BRDT(2). To be noted: compound 10 μM, protein 2 μM; average of triplicate; read-out: ΔTm Shift, BRDT(2). Here is the method: as §2

Test [8] addresses T7, PB1(5) (Homo sapiens, UniProt Q86U86).
T7 construct: made in house
Briefly: Protein stability (thermal) shift assay, PB1(5). To be noted: compound 10 μM, protein 2 μM; average of triplicate. As to the method: as §2

Test [9] deals with T8, BRD2(2) (Homo sapiens, UniProt P25440).
T8 construct: made in house
T8 sequence (P25440 344-453 limits assumed): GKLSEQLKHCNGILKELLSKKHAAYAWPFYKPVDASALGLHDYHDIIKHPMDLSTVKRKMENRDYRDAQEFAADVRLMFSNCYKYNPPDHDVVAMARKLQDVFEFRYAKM
The experiment in a line: Protein stability (thermal) shift assay, BRD2(2). To be noted: compound 10 μM, protein 2 μM; average of triplicate. Here is the method:
as §2

The target of test [10] is T9, BRD3(1) (Homo sapiens, UniProt Q15059).
T9 construct: Fragments were tested in a thermal shift assay against bromodomains of the BET subfamily; made in house
T9 sequence (Q15059 34-140 limits assumed): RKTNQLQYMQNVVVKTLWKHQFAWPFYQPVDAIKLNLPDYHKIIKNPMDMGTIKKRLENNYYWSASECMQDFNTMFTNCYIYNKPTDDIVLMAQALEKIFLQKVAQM
The experiment in a line: Protein stability (thermal) shift assay, BRD3(1). To be noted: compound 10 μM, protein 2 μM; average of triplicate. Here is the method:
as §2

Test [11] has as its target T10, BRD3(2) (Homo sapiens, UniProt Q15059).
T10 construct: made in house
Briefly: Protein stability (thermal) shift assay, BRD3(2). To be noted: compound 10 μM, protein 2 μM; average of triplicate. Here is the method: as §2

Test [12] addresses T11, BRD4(2) (Homo sapiens, UniProt O60885).
T11 construct: made in house
The experiment in a line: Protein stability (thermal) shift assay, BRD4(2). To be noted: compound 10 μM, protein 2 μM; average of triplicate. Here is the method: as §2

Test [13] concerns the target T12, BRDT(1) (Homo sapiens, UniProt Q58F21).
T12 construct: made in house
Briefly: Protein stability (thermal) shift assay, BRDT(1). The note with it: compound 10 μM, protein 2 μM; average of triplicate. As to the method: as §2

The target of test [14] is T13, BAZ2B (Homo sapiens, UniProt Q9UIF8).
T13 construct: representative BRDs from other structural subfamilies (family I, PCAF); family III, CREBBP; family IV, BRD9; family V, BAZ2B; made in house
T13 sequence (Q9UIF8 2060-2164 limits assumed): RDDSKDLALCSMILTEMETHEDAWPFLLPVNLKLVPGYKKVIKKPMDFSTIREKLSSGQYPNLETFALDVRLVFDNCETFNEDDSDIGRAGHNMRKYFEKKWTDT
The experiment in a line: Protein stability (thermal) shift assay, BAZ2B. The note with it: compound 10 μM, protein 2 μM; average of triplicate; read-out: ΔTm Shift, BAZ2BA. Here is the method:
as §2

In test [15] the target is T2, BRD4(1). Briefly: Isothermal titration calorimetry, BRD4(1). As to the method: as §1
Setting [16] is: thermal shift, 10 μM compound, 2 μM protein, read-out: ΔTm.
Where [17] appears, read: compound 10 μM, protein 2 μM, average of triplicate, read-out: ΔTm Shift, BRD4(1).
Where [18] appears, read: compound 10 μM, protein 2 μM, average of triplicate, read-out: ΔTm Shift, CREBBP.

Where two headings read alike, the source gives them in different places.

T7 sequence (Q86U86 653-763 limits assumed): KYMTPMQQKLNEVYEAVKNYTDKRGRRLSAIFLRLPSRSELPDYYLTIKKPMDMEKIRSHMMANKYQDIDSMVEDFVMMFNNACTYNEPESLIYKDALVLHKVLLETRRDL
T5 sequence (Q92793 1085-1192 limits assumed): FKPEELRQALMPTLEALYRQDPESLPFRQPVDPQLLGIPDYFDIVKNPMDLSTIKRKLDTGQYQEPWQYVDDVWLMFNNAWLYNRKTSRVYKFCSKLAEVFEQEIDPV
T10 sequence (Q15059 306-415 limits assumed): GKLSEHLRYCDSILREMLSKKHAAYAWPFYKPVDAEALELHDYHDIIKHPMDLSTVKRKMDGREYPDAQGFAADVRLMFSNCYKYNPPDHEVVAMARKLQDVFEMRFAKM
T3 sequence (P25440 74-180 limits assumed): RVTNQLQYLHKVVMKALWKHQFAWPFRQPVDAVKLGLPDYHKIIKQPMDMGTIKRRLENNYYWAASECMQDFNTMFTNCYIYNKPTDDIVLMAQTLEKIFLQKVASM

For the compound `COc1ccccc1-c1nc(N)nc2[nH]cnc12` [Compound 7a, 2-Amino-6-(2-methoxyphenyl)-9H-purine], the Kd in test [1] is 641 ± 33 nM. For the same compound, the ΔG result in test [1] is “–8.16 kcal/mol”. For the same compound, in test [1], the “N (stoichiometry)” value was 1.06 ± 0.004. Moreover, the ΔHobs entry in [1] is given as “–12.71 ± 0.07 kcal/mol”. Moreover, in test [1], the “LE (ligand efficiency)” value was 0.45. For the same compound, the ΔTm at 10 µM in test [2] (setting [16]) was 2.9 °C; in test [3] (setting [17]) it was 2.3 °C; in [4], 0.6 °C; in test [5], -0.7 °C; in test [6] (setting [16]), 1.5 °C; in test [7] it was 1.4 °C. For the same compound, the ΔTm at 10 µM is 0.236 °C in test [8]; 1.7 °C in test [9]; 1.4 °C in [10]; 2.5 °C in [11]; -2.2 °C in test [12]; 0.6 °C in [13]. In test [14], the ΔTm at 10 µM was -0.217 °C.
In the case of `COc1ccc(F)cc1-c1nc(N)nc2[nH]cnc12` [Compound 7b, 2-Amino-6-(5-fluoro-2-methoxyphenyl)-9H-purine], the Kd in test [1] worked out at 351 ± 18 nM. The TΔS entry in test [1] is reported as “–4.52 kcal/mol”. In addition, the ΔG entry in test [1] is “–8.52 kcal/mol”. The “N (stoichiometry)” value in test [1] was 0.97 ± 0.004. In addition, the ΔHobs entry in test [1] is “–13.04 ± 0.07 kcal/mol”. Moreover, in test [1], the “LE (ligand efficiency)” value came out at 0.45. Further, the ΔTm at 10 µM was 2.6 °C in [2] (compound 10 μM, protein 2 μM, average of triplicate, read-out: ΔTm Shift, BRD9); 0.369 °C in test [3] (setting [17]); 0.3 °C in test [4]; -0.151 °C in [5]; 0.356 °C in test [6] (setting [18]); 3 °C in test [7]. Further, the ΔTm at 10 µM in test [8] is 0.5 °C; in [9], 0.8 °C; in [10], 0.548 °C; in [11] it was 0.8 °C; in test [12] it was 0.1 °C; in [13], -0.111 °C. Besides, in test [14], the ΔTm at 10 µM worked out at 0.3 °C.
With `COc1ccc(Cl)cc1-c1nc(N)nc2[nH]cnc12` [Compound 7c, 2-Amino-6-(5-chloro-2-methoxyphenyl)-9H-purine], the Kd in test [15] (ITC, 50 mM HEPES pH 7.5, 150 mM NaCl, 15 °C, reverse titration, triplicate, read-out: KD) is 2040 ± 118 nM; in [15] (ITC, read-out: dissociation constant), 2040 nM; in test [1], 297 ± 10 nM. In addition, the TΔS in test [15] (ITC, 15 °C) was 1.29 kcal/mol; in test [1], “–3.46 kcal/mol”. The ΔG entry in [15] (ITC, 15 °C) is “–7.50 kcal/mol”; in [1], “–8.59 kcal/mol”. The “N (stoichiometry)” value in test [15] (ITC, 15 °C, reverse titration) was found to be 1.05 ± 0.012; in test [1], 0.98 ± 0.003. Besides, the ΔHobs entry in [15] (ITC, 15 °C, reverse titration) was “–6.21 ± 0.09 kcal/mol”; in [1], “–12.05 ± 0.04 kcal/mol”. For the same compound, the “LE (ligand efficiency)” value in test [15] (LE = ΔG/N, N number of non-hydrogen atoms) is reported as 0.39; in [1] it was 0.45. The ΔTm at 10 µM in test [2] (setting [16]) is 3.8 °C; in test [3] (setting [16]) it was 1.1 °C; in [4], 0.4 °C; in test [5], -0.9 °C; in [6] (setting [18]), 0.272 °C; in test [7], 0.272 °C. Further, the ΔTm at 10 µM in test [8] was 0.272 °C; in test [9] it was 1.2 °C; in test [10], 0.9 °C; in [11], 1.3 °C; in [12], 0.7 °C; in test [13], 0.272 °C. In [14], the ΔTm at 10 µM was 0.272 °C.
